# In patent US20140249165A1, “PURINE DERIVATIVES FOR TREATMENT OF CYSTIC DISEASES” (Genzyme Corporation, priority 2006, published 2014):
# Where two headings read alike, the source gives them in different places.
# Assays:
# MDCK cysts = details: read-out: IC50 of inhibition of cystic growth; MDCK cysts in 3D collagen I gel, 96 hours incubation, Alamar Blue
# cpk model of PKD = details: cpk mice, 100 mg/kg IP daily, day 7 till day 21
# [1] = tested on: cystic kidneys (cell cycle and transcription proteins); test: Western blot analysis of cystic kidney protein extracts; format: in vivo, mouse; details: cystic kidneys of treated mice
# Protocol: Kidneys were homogenized in RIPA buffer (10 mM HEPES, pH 8.0, 100 mM NaCl, 1% Triton X-100, 0.1% SDS, 0.5% sodium deoxycholate, 1 mM DTT, 1 mM EDTA, 1 mM NaF, 1 mM Na3VO4) with Complete™ protease inhibitor cocktail (Roche Diagnostic GmbH, Mannheim, Germany). 30 μg of protein samples were separated in 4-12% SDS/acrylamide gels (Invitrogen, Carlsbad, Calif.). Gels were soaked in transfer buffer (192 mM glycine, 25 mM Tris, 10% methanol, pH 8.3) and transferred to Immobilone-P membranes (Millipore Corporation, Bedford, Mass.). Membranes were rehydrated with methanol and incubated in blocking buffer (5% powdered milk or 3% BSA in PBS) for 30 min. Membranes were incubated overnight at 4° C. with primary antibodies against RNApolII-p, p35/p25 (Abcam, Cambridge, Mass.); Rb-p, cycD1, cycD1-p, ERK2, ERK1/2-p (Cell Signaling, Danvers, Mass.); Rb2, RBBP, cycD3, caspase-2, caspase-3, ApaF1, Bcl-2, Bcl-XL, BAD (BD Biosciences, San Jose, Calif.); CDK7, CDK9, PCNA, GAPDH (US Biologicals, Swampscott, Mass.); cycD2 (BioSource International, Camarillo, Calif.), washed in TBST and incubated with HRP-labeled secondary antibodies as recommended by the manufacturer Immunoreactive proteins were detected using enhanced chemi-luminescence (Amersham Pharmacia Biotech, Little Chalfont Buckinghamshire, England).
# jck kidney = test: PCNA and TUNEL staining of jck kidney sections; format: in vivo, mouse; details: Roscovitine treated jck kidney
# [2] = jck female, 150 mg/kg IP daily, continuous 5 W
# [3] = jck male, 50 mg/kg IP daily, continuous 5 W
# [4] = jck male, 150 mg/kg IP daily, continuous 5 W (Table 2)
# [5] = jck male, 150 mg/kg, daily dosing for 5 weeks (Table 2a)
# [6] = jck male, 150 mg/kg, pulse treatment 5 W (1/1): 1 week on, 1 week off for 5 weeks
# [7] = jck male, 150 mg/kg, pulse treatment 5 W (3/2): 3 weeks on, 2 weeks off
compound,measurement,setting,value
CC[C@H](CO)Nc1nc(N(C)Cc2ccccc2)c2ncn(C(C)C)c2n1,IC50,MDCK cysts,190 µM
"CC[C@H](CO)Nc1nc(NCc2ccccc2)c2ncn(C(C)C)c2n1 [Roscovitine, 6-benzylamino-2-(R)-[(1-ethyl-2-hydroxy)ethylamino]-9-isopropylpurine]",BUN,cpk model of PKD,54.58 ± 9.60 mg/dL
same,Body weight,cpk model of PKD,9.75 ± 1.00 g
same,Creatinine,cpk model of PKD,0.29 ± 0.07 mg/dL
same,Cystic volume,cpk model of PKD,14.62 ± 2.16 % BW
same,BUN,jck mouse model of PKD; [2],31.09 ± 6.12 mg/dL
same,Body weight,jck mouse model of PKD; [2],19.79 ± 0.80 g
same,Cystic volume,jck mouse model of PKD; [2],0.74 ± 0.24 % BW
same,BUN,jck mouse model of PKD; [3],51.25 ± 10.19 mg/dL
same,Body weight,jck mouse model of PKD; [3],20.54 ± 1.66 g
same,Cystic volume,jck mouse model of PKD; [3],2.25 ± 0.66 % BW
same,BUN,jck mouse model of PKD; [4],26.78 ± 3.31 mg/dL
same,Body weight,jck mouse model of PKD; [4],21.52 ± 1.78 g
same,Cystic volume,jck mouse model of PKD; [4],0.98 ± 0.15 % BW
same,BUN,jck mouse model of PKD; [5],28.89 ± 7.51 mg/dL
same,Body weight,jck mouse model of PKD; [5],22.33 ± 1.05 g
same,Cystic volume,jck mouse model of PKD; [5],1.10 ± 0.41 % BW
same,BUN,jck mouse model of PKD; [6],43.90 ± 13.08 mg/dL
same,Body weight,jck mouse model of PKD; [6],22.14 ± 1.10 g
same,Cystic volume,jck mouse model of PKD; [6],1.28 ± 0.22 % BW
same,BUN,jck mouse model of PKD; [7],27.60 ± 4.32 mg/dL
same,Body weight,jck mouse model of PKD; [7],22.77 ± 0.39 g
same,Cystic volume,jck mouse model of PKD; [7],1.29 ± 0.40 % BW
same,BUN,"jck mouse model of PKD; jck mice, 50 mg/kg",reduced
same,BUN,"jck mouse model of PKD; jck mice, 150 mg/kg",normalized
same,"Tolerability (weight loss, mortality, toxicity)","jck mouse model of PKD; jck mice, 50 or 150 mg/kg IP","well tolerated with no weight loss, mortality or toxicity"
same,Cystogenesis with intermittent dosing,"jck mouse model of PKD; jck mice, daily for one week followed by one week off, total of 5 weeks",reduction of cystogenesis was detected
same,Anti-cystic effect after drug withdrawal,"jck mouse model of PKD; jck/jck males, 150 mg/kg daily for 3 weeks, followed by 2 weeks without treatment",long lasting anti-cystic effect was detected with normalized levels of BUN
same,Cyclin D2 and D3 expression,[1],downregulated
same,Level of ERK 1/2 activation,[1],decreasing the level of ERK 1/2 activation
same,Levels of Rb associated proteins Rb2 and RBB2,[1],normalized
same,Phosphorylation level of cyclin D1 (Thr-286),[1],normalized phosphorylation level of cyclin D1
same,Rb phosphorylation,[1],dephosphorylation of Rb3
same,RNA pol II phosphorylation,[1]; vs WT controls,reduced levels of RNA pol II phosphorylation
same,PCNA-positive cells,jck kidney; PCNA immunostaining,quantitative reduction in PCNA-positive cells
same,TUNEL-positive cells,jck kidney; TUNEL staining,reduced the number of TUNEL-positive cells
